Where two headings read alike, the source gives them in different places.
Tests used:
ICR mice = settings: for Autopsy results of survival animals: 3000 mg/kg ig; for Abnormal reactions within 12 hours from ig administration: F compounds 3000 mg/kg; for Number of dead animals: ig 3000 mg/kg, 10 mice; for death, preliminary experiments / toxic reactions, preliminary experiments / LD50/Maximum dose: mice; for death, preliminary experiments / toxic reactions, preliminary experiments: intragastric 1600 mg/kg; for LD50/Maximum dose: ig once, 14 days observation, Bliss method, febuxostat: LD50, F compounds: maximum administration dose, no deaths
hyperuricemia rats [1] = test: pharmacodynamic screening in rat hyperuricemia model (exogenous uric acid administered, uric acid decomposition inhibited); type: in vivo, SD rats; settings: for Serum uric acid level, Value after 3 h of drug administration: 3 h after first administration, model group 174.4 ± 39.9, blank 53.9 ± 12.8; for uric acid-lowering effect (in words): 3 h after drug administration, febuxostat and ethyl ester 14 mg/kg oral; for uric acid-lowering effect (in words) / p, uric acid level 3 h after drug administration compared with the blank group: F compounds 10 mg/kg; for p, uric acid level 3 h after drug administration compared with the blank group: febuxostat 14 mg/kg oral
in vivo = settings: mouse, po
hyperuricemia rats [2] = test: dose-effect relationship study in rat hyperuricemia model; type: in vivo, SD rats; settings: 3 h after first administration, model group 226.2 ± 35.2, blank 37.4 ± 5.1
Method: In order to further study the pharmacological activity of the compounds of the present disclosure, as well as the relationship between the activity and the dose, this example selected several compounds of the present disclosure to conduct a dose-effect relationship study in a rat model, in which exogenous uric acid was administered and uric acid decomposition was inhibited simultaneously. A positive drug was used as a control.
1. Experimental animals: Male SPF grade SD rats weighing 110-150 grams. […] The animals were free to drink and eat. All cages were sterilized at 121° C., feed was sterilized by irradiation, and water was sterilized purified water.
2. Experimental drugs: F-1C, F-2C, F-3A, 1.0 g for each compound; febuxostat (positive drug) 1.0 g; febuxostat ethyl ester (ethyl 2-[3-cyano-4-isobutoxyphenyl]-4-methylthiazole-5-carboxylate) 1.0 g;
3.1 Formulation of F-1C, F-2C, F-3A: Tor each of the compounds, take 100 mg, add 20 ml of 0.5% sodium carboxymethyl cellulose and grind, and then dilute to 100 ml.
3.2 Take 100 mg of febuxostat, add 20 ml of 0.5% sodium carboxymethyl cellulose and grind, and then dilute to 100 ml.
Except the blank group, the rest rats were modeled for 15 days and then their serum uric acid levels were detected. The rats were equally divided into several groups according to the detected uric acid levels thereof.
F-1C, F-2C and F-3A groups: each compound was taken orally at 3 doses, i.e., 2.5, 5 and 10 mg/kg; QD; and 10 animals for each dose group.
Febuxostat group: oral administration of 10 mg/kg, QD, and 10 animals.
Febuxostat ethyl ester group: oral administration of 10 mg/kg, QD, and 10 animals.
The blank group was not administrated with any drug. Each of the rest groups was orally administrated with oteracil potassium 1 g/kg and uric acid 0.3 g/kg and intraperitoneally injected with 0.1 g/kg uric acid (dissolved in 0.5% sodium carboxymethyl cellulose), once a day on schedule, for 15 days. 0.5 ml of blood samples was drawn from orbit before the experiment and […] after the modelling, respectively, to separated serum for determining serum uric acid levels.
After successful modeling, the rats were equally divided into several groups according to the serum uric acid values thereof, and then were intragastrically administrated with the test drugs. Three hours after the first administration, 0.5 ml of orbital venous blood was drawn from the orbit of the rats, centrifuged at 3000 RPM for 15 min, to obtain for determining the serum uric acid level of each rat.
Data were expressed by mean±standard deviation (′x±SD), and analyzed by Excel 7.0 and SPPS 13.0 for Windows software. Q-test was used for the comparison between groups, and the self-paired t-test was used for the comparison of a group before and after administration. It indicated significant difference when P<0.05.

[3] = formal test, all dose groups, febuxostat high-dose group
[4] = formal test, febuxostat high-dose group

Structure (SMILES)	Autopsy results of survival animals (ICR mice; formal test)	animal deaths within 24 hours from the administration (ICR mice; [3])	Abnormal reactions within 12 hours from ig administration (ICR mice; [4])	Number of dead animals (ICR mice)	death, preliminary experiments (ICR mice)	toxic reactions, preliminary experiments (ICR mice)	Serum uric acid level, Value after 3 h of drug administration (hyperuricemia rats [1]; 10 mg/kg oral)	LD50 at 14 days (in vivo)	LD50 at 14 days (in vivo; 3000 mg/kg)	animal deaths within 24 hours from the administration (ICR mice; mouse, in vivo)	uric acid-lowering effect (in words) (hyperuricemia rats [1])	p, uric acid level 3 h after drug administration compared with the blank group (hyperuricemia rats [1])	Serum uric acid content, Value after 3 h of drug administration (hyperuricemia rats [2]; 2.5 mg/kg oral)	Serum uric acid content, Value after 3 h of drug administration (hyperuricemia rats [2]; 5 mg/kg oral)	Serum uric acid content, Value after 3 h of drug administration (hyperuricemia rats [2]; 10 mg/kg oral)	LD50/Maximum dose (ICR mice)	Serum uric acid level, Value after 3 h of drug administration (hyperuricemia rats [1]; 14 mg/kg oral)
Cc1nc(-c2ccc(OCC(C)C)c(C#N)c2)sc1C(=O)OCCO [Compound F-1A]	No obvious abnormalities were observed in the organs	no animal deaths were observed	no abnormalities were observed	0	no animal died	no obvious toxicity symptom was observed	71.0 ± 24.4^a3b3c1 μmol/L	3000 mg/kg	≥ 3000 mg/kg	–	–	–	–	–	–	–	–
Cc1nc(-c2ccc(OCC(C)C)c(C#N)c2)sc1C(=O)OCC(O)CO (centres unmarked) [Compound F-1B]	No obvious abnormalities were observed in the organs	–	no abnormalities were observed	0	–	no obvious toxicity symptom was observed	67.5 ± 19.4^a3b3 μmol/L	3000 mg/kg	≥ 3000 mg/kg	no animal deaths were observed	very obvious uric acid-lowering effects	no significant difference	–	–	–	–	–
Cc1nc(-c2ccc(OCC(C)C)c(C#N)c2)sc1C(=O)OC(C)Cl (centres unmarked) [Compound F-1C]	No obvious abnormalities were observed in the organs	no animal deaths were observed	no abnormalities were observed	0	no animal died	no obvious toxicity symptom was observed	64.2 ± 28.1^a3b3 μmol/L	3000 mg/kg	≥ 3000 mg/kg	–	very obvious uric acid-lowering effects	no significant difference	189.8 ± 25.3^a3 μmol/L	146.9 ± 19.5^a3, b3 μmol/L	100.1 ± 25.8^a3, b3, c3 μmol/L	–	–
Cc1nc(-c2ccc(OCC(C)C)c(C#N)c2)sc1C(=O)NCC(=O)O [Compound F-2A]	No obvious abnormalities were observed in the organs	no animal deaths were observed	no abnormalities were observed	0	no animal died	no obvious toxicity symptom was observed	78.3 ± 25.1^a3b3c2 μmol/L	3000 mg/kg	≥ 3000 mg/kg	–	–	< 0.01	–	–	–	–	–
Cc1nc(-c2ccc(OCC(C)C)c(C#N)c2)sc1C(=O)NC(C)C(=O)O (centres unmarked) [Compound F-2B]	No obvious abnormalities were observed in the organs	no animal deaths were observed	no abnormalities were observed	0	no animal died	no obvious toxicity symptom was observed	70.3 ± 16.4^a3b3c1 μmol/L	–	–	–	–	–	–	–	–	3000 mg/kg	–
Cc1nc(-c2ccc(OCC(C)C)c(C#N)c2)sc1C(=O)NC(CC(=O)O)C(=O)O (centres unmarked) [Compound F-2C]	No obvious abnormalities were observed in the organs	no animal deaths were observed	no abnormalities were observed	0	no animal died	no obvious toxicity symptom was observed	68.6 ± 19.2^a3b3c1 μmol/L	–	–	–	–	–	172.7 ± 33.9^a3 μmol/L	131.9 ± 29.7^a3, b3 μmol/L	107.3 ± 21.2^a3, b3, c3 μmol/L	3000 mg/kg	–
Cc1nc(-c2ccc(OCC(C)C)c(C#N)c2)sc1C(=O)N1CCC[C@H]1C(=O)O [Compound F-2D]	No obvious abnormalities were observed in the organs	no animal deaths were observed	no abnormalities were observed	0	no animal died	no obvious toxicity symptom was observed	69.1 ± 23.4^a3b3c1 μmol/L	3000 mg/kg	≥ 3000 mg/kg	–	–	–	–	–	–	–	–
Cc1nc(-c2ccc(OCC(C)C)c(C#N)c2)sc1C(=O)OCCN(C)CCO [Compound F-3A]	No obvious abnormalities were observed in the organs	no animal deaths were observed	no abnormalities were observed	0	no animal died	no obvious toxicity symptom was observed	64.1 ± 16.1^a3b3 μmol/L	3000 mg/kg	≥ 3000 mg/kg	–	very obvious uric acid-lowering effects	no significant difference	173.4 ± 32.7^a3, b3 μmol/L	137.6 ± 24.3^a3, b3 μmol/L	82.3 ± 16.8^a3, b3, c3 μmol/L	–	–
Cc1nc(-c2ccc(OCC(C)C)c(C#N)c2)sc1C(=O)OCCCN(C)CCCO [Compound F-3B]	No obvious abnormalities were observed in the organs	no animal deaths were observed	no abnormalities were observed	0	no animal died	no obvious toxicity symptom was observed	66.3 ± 17.1^a3b3 μmol/L	3000 mg/kg	≥ 3000 mg/kg	–	very obvious uric acid-lowering effects	no significant difference	–	–	–	–	–
Cc1nc(-c2ccc(OCC(C)C)c(C#N)c2)sc1C(=O)NC1C(O)OC(CO)C(O)C1O (centres unmarked) [Compound F-4A]	No obvious abnormalities were observed in the organs	–	no abnormalities were observed	0	–	no obvious toxicity symptom was observed	71.4 ± 19.6^a3b3c1 μmol/L	3000 mg/kg	≥ 3000 mg/kg	no animal deaths were observed	–	–	–	–	–	–	–
CCOC(=O)c1sc(-c2ccc(OCC(C)C)c(C#N)c2)nc1C [Febuxostat ethyl ester, ethyl 2-[3-cyano-4-isobutoxyphenyl]-4-methylthiazole-5-carboxylate, reference compound]	–	–	–	–	–	–	–	–	–	–	inferior to febuxostat	–	–	–	177.3 ± 38.6^a3 μmol/L	–	113.9 ± 24.9^a3b3c3 μmol/L

Source: patent US11401247B2, “Thiazole-5-carboxylic acid derivative and preparation method and use thereof” (XIANGBEI WELMAN PHARMACEUTICAL CO., LTD, priority 2018, dated 2022)
